According to patent publication US7264629B2, “Photodynamic therapy for the treatment of hair loss” (QLT, Inc., priority 2001, dated 2007):

Legend:
[1] = system: C3H/HeJ female mice exhibiting hair loss; experiment: Stimulation of hair growth in a mouse model of alopecia areata (topical PDT); assay type: in vivo; conditions: 0.2% (w/w) ointment
From the text: A disease closely resembling human alopecia areata has been observed in aging (over 6-month old) C3H/HeJ mice (see Sundberg, J. P et al, Alopecia Areata in Aging C3H/HeJ Mice, Journal of Investigative Dermatology 102(6): 847-856 [1994[). […] All other areas outside of the treatment site were left untreated.
Following this treatment, all 3 mice received a dose of 50 J/cm^2 688 nm light delivered at a rate of 50 mw/cm^2 in the 1.5 square area. Mice were monitored for skin photosensitivity reactions on Days 1 and 3 after light exposure and observed for hair re-growth for up to 19 days post-treatment.

shaved Balb/C mice = experiment: PDT-induced stimulation of hair growth using topically-applied photosensitizer in shaved Balb/c mice; assay type: in vivo
Protocol: To prepare QLT 0074-containing ointment, QLT 0074 photosensitizer was dissolved in glacial acetic acid to solubilize it. The solution was then frozen in a dry ice/isopropanol bath and the acetic acid was removed by lyophilization. The resultant material was a fine fluffy powder. […] The ointment base was prepared by first warming polyethylene glycol 200 (PEG 200) to 80-90° C. with stirring. Polyethylene glycol 3350 (PEG 3.35 K) was then added with stirring, followed by oleyl alcohol, and then diethylene glycol monoethyl ether. Stirring was continued until the solution was clear. The ointment base was cooled to approximately 50° C., and the QLT 0074 was added with stirring. Stirring was continued as the mixture cooled, until a homogenous paste was achieved. […]
Female Balb/C mice (8-14 weeks old) were supplied by Charles River Canada (St. Constance, Quebec). […] Mice were randomly assigned to PDT treatment and controlled groups, and were monitored for pain or distress.
Eighteen mice were shaved to remove hair from the back and both flanks. […] QLT 0074-containing ointment was applied to a square spot on the left side of each of mice 1-9 using a square template, with the same quantity of ointment applied to each spot. […]

[2] = system: human males with type II or III Vertex alopecia (AGA); experiment: Stimulation of hair growth in human subjects with AGA (single topical PDT, terminal hair counts); assay type: in vivo; conditions: 0.2% w/w ointment, 50 and 75 J/cm^2; 10 subjects; during and after treatment
Protocol: A total of 10 subjects were treated. All subjects were human males over 18 years of age and had type II or III Vertex alopecia, rated according to the modified Hamilton-Norwood scale. All subjects received a single application of topical QLT0074 ointment 0.2% weight in weight (w/w) to two of three circular test sites on the vertex area of the scalp. The amount of ointment applied to each test site was approximately 224 mg (about 0.44 mg of photosensitizer per test site). After 2 hours the excess drug was removed and red light (LED's—690 nm) was administered to two of the three sites. The other test site served as a control with no drug or light administration.
Two light dose cohorts (50 and 75 J/cm^2) were investigated with each cohort having 5 subjects.
Safety was assessed by monitoring all adverse events during and after the treatment.
The efficacy was assessed by hair counts 3 months after the treatment and compared to baseline counts.

[3] = system: shaved female Balb/c mice; experiment: Optimization of drug concentration, irradiation dose and light intensity on hair regrowth in shaved mice, topical QLT 0074; assay type: in vivo; conditions: for hair regrowth at the treatment site: 0.5% ointment
Protocol: A study was performed to assess the effect of drug concentration (0.005, 0.05, or 0.5% QLT 0074 ointment), light dose (50, 100 or 150 J/cm^2 red light) and light intensity 50 or 200 mW/cm) on hair regrowth in shaved female Balb/c mice. Mice received QLT 0074 ointment applied to the skin for 30 minutes, followed by a 15-minute treatment with placebo ointment and exposure to red light (688 nm). One group received no QLT 0074 ointment, only the placebo ointment and light exposure. Preparation of ointments and treatment procedure was as outlined in Example 2, except that different amounts of QLT 0074 were added.
Ointments were prepared as in Example 2, except that different amounts of QLT 0074 (on a weight/weight basis) were incorporated into the ointments. The treatment procedure was as outlined in Example 2.

patients = conditions: topical 0.5% HP and UVA three times a week; first week of treatment; two patients; cited from earlier work
alopecia areata patients = conditions: 2% khellin and UVA, cited from earlier work

C=Cc1c(C)c2cc3nc(cc4[nH]c(cc5nc(cc1[nH]2)C(C)=C5CCC(=O)OCCO)c(CCC(=O)OCCO)c4C)[C@@]1(C)C3=CC=C(C(=O)OC)[C@H]1C(=O)OC [QLT 0074]
skin photosensitivity reactions ([1]; 50 J/cm^2 688 nm at 50 mw/cm^2, Days 1 and 3 after light exposure): no skin photosensitivity reactions were observed | number of mice with increased amount of hair in the treatment area ([1]; of the 3 mice treated, day 7 post-treatment, 50 J/cm^2 688 nm): 2 | hair re-growth, representative mouse (FIG. 4) (shaved Balb/C mice; 17 days after PDT treatment): Hair re-growth was observed | number of mice that developed hair growth on the treated area by day 17 (shaved Balb/C mice; out of nine mice, 0.5% w/w ointment 30 min, 688 nm 50 J/cm^2 at 200 mW/cm^2): five | serious adverse events [2]: No serious adverse events were reported | hair growth ([3]; 0.05% ointment, any light dose): did not exhibit hair growth | hair regrowth at the treatment site ([3]; 50, 100 or 150 J/cm^2 at 200 mW/cm^2): Hair regrowth at the treatment site was observed | hair regrowth at the treatment site ([3]; 50 or 100 J/cm^2 red light at 50 mW/cm^2): Hair regrowth at the treatment site was also observed | moderate or severe skin photosensitivity reactions ([3]; all drug and light dose combinations): no moderate or severe skin photosensitivity reactions were observed | number of animals with hair regrowth at the treatment site ([3]; of three animals, 0.005% ointment, 150 J/cm^2 at 200 mW/cm^2): one | skin reactions following treatment ([3]; some treatments, typically highest drug and light dose combinations): Mild skin reactions were evident

CC1=C(CCC(=O)O)c2cc3[nH]c(cc4nc(cc5[nH]c(cc1n2)c(C)c5C(C)O)C(C)=C4C(C)O)c(C)c3CCC(=O)O (centres unmarked) [hematoporphyrin, Hematoporphyrin]
skin reactions in treated sites (patients): significant erythema and mild scaling followed by hyperpigmentation

COc1c2occc2c(OC)c2c(=O)cc(C)oc12 [khellin]
phototoxicity (alopecia areata patients): did not cause phototoxicity | number of patients treated successfully (alopecia areata patients; of the 10 patients tested): 5
